Assay results: ChEMBL document CHEMBL5214915 (Eur J Med Chem, 2021)
In brackets after ≈: the same amount, converted by molar mass.

What was measured:
[1] = tested on: Mycobacterium tuberculosis; assay: Antibacterial activity against Mycobacterium tuberculosis incubated for 1 to 2 weeks in 7H9/ADC/Tw medium; format: functional; settings: time 1-2 weeks
Vero = assay: Cytotoxicity against African green monkey Vero cells measured after 72 hrs by tetrazolium-based colorimetric MTT assay; format: toxicity, cell-based; settings: chlorocebus sabaeus
[2] = tested on: Mycobacterium tuberculosis; assay: Antibacterial activity against Mycobacterium tuberculosis incubated for 1 to 2 weeks in GastFe medium; format: functional; settings: time 1-2 weeks
[3] = tested on: Mycobacterium tuberculosis; assay: Antibacterial activity against Mycobacterium tuberculosis incubated for 1 to 2 weeks in 7H9/DPPC/casitone/Tx medium; format: functional; settings: time 1-2 weeks
[4] = Mycobacterium tuberculosis, read-out: MIC99

Row | Compound | MIC99 [1, 4] | CC50 (Vero) | MIC99 [2, 4] | MIC99 [3, 4] | MIC99 [1] | MIC99 [2] | MIC99 [3]
1 | Nc1cccc(F)c1C(=O)O | 5 µM (≈ 0.776 µg/mL) | 74 µM |  |  |  |  | 
2 | Nc1cccc(F)c1C(Nc1ccc(F)cc1)C(F)(F)F (stereo not drawn) | 50 µM (≈ 15.1 µg/mL) |  | 50 µM (≈ 15.1 µg/mL) | 50 µM (≈ 15.1 µg/mL) |  |  | 
3 | Nc1cccc(F)c1C(=O)NC1CCCCC1 | > 50 µM |  | > 50 µM | > 50 µM |  |  | 
4 | Cc1nnc(-c2c(N)cccc2F)o1 | > 50 µM |  | > 50 µM | > 50 µM |  |  | 
5 | Nc1cccc(F)c1C(=O)NNCc1ccccc1 | > 50 µM |  | > 50 µM | 50 µM (≈ 13 µg/mL) |  |  | 
6 | COc1ccc(NNC(=O)c2c(N)cccc2F)cc1 | 12.5 µM (≈ 3.44 µg/mL) | 1310 µM | 0.78 µM (≈ 0.215 µg/mL) | 1.56 µM (≈ 0.429 µg/mL) |  |  | 
7 | Nc1cccc(F)c1C(=O)N1CCCC1 | > 50 µM |  | > 50 µM | > 50 µM |  |  | 
8 | Nc1cccc(F)c1C(=O)NNc1ccc(Cl)cc1 | 12.6 µM (≈ 3.51 µg/mL) | 373 µM | 3.12 µM (≈ 0.874 µg/mL) | 1.56 µM (≈ 0.436 µg/mL) |  |  | 
9 | NC(=O)c1c(N)cccc1F | > 50 µM |  | > 50 µM | > 50 µM |  |  | 
10 | Nc1cccc(F)c1C(=O)NNc1ccccc1 |  | 2030 µM |  | 1.56 µM (≈ 0.383 µg/mL) | 12.5 µM (≈ 3.07 µg/mL) |  | 
11 | Nc1cccc(F)c1C(=O)NC1CC1 | > 50 µM |  | > 50 µM | > 50 µM |  |  | 
12 | Nc1cccc(F)c1C(=O)NNc1cc(Cl)ccc1Cl | > 50 µM | > 1800 µM | 25 µM (≈ 7.85 µg/mL) | 6.25 µM (≈ 1.96 µg/mL) |  |  | 
13 | Nc1cccc(F)c1C(N1CCSCC1)C(F)(F)F (stereo not drawn) | 50 µM (≈ 14.7 µg/mL) |  | 50 µM (≈ 14.7 µg/mL) | 50 µM (≈ 14.7 µg/mL) |  |  | 
14 | Nc1cccc(F)c1C(=O)NC1CCC1 | > 50 µM |  | > 50 µM | > 50 µM |  |  | 
15 | CC(C)NC(=O)c1c(N)cccc1F | > 50 µM |  | > 50 µM | > 50 µM |  |  | 
16 | Nc1cccc(F)c1C(=O)NNc1ccc(Cl)c(Cl)c1 | 25 µM (≈ 7.85 µg/mL) | > 1800 µM | 12.5 µM (≈ 3.93 µg/mL) | 1.56 µM (≈ 0.49 µg/mL) |  |  | 
17 | CC(C)(C)OC(=O)NNC(=O)c1c(N)cccc1F | > 50 µM |  | > 50 µM | > 50 µM |  |  | 
18 | Nc1cccc(F)c1C(=O)NNc1ccc(C(F)(F)F)cc1 | 45.5 µM (≈ 14.2 µg/mL) | 1360 µM | 11.4 µM (≈ 3.56 µg/mL) | 2.84 µM (≈ 0.89 µg/mL) |  |  | 
19 | Nc1cccc(F)c1C(=O)N1CCCCC1 | > 50 µM |  | > 50 µM | > 50 µM |  |  | 
20 | Cl.Nc1cccc(F)c1C(=O)NNc1ccc(F)cc1 |  | > 1800 µM |  |  |  | 1.4 µM | 1.4 µM
21 | Nc1cccc(F)c1C(=O)NNc1cccc(Cl)c1 | 25 µM (≈ 6.99 µg/mL) | > 1800 µM | 6.25 µM (≈ 1.75 µg/mL) | 1.56 µM (≈ 0.436 µg/mL) |  |  | 
22 | Nc1cccc(F)c1C(=O)NNc1ccccc1Cl | 25 µM (≈ 6.99 µg/mL) | 792 µM | 3.12 µM (≈ 0.874 µg/mL) | 3.12 µM (≈ 0.874 µg/mL) |  |  | 

Row | Compound | MIC99 [1, 4] | CC50 (Vero) | MIC99 [2, 4] | MIC99 [3, 4] | MIC99 [1] | MIC99 [2] | MIC99 [3]
23 | Nc1cccc(F)c1C(=O)NO | > 50 µM |  | > 50 µM | > 50 µM |  |  | 
24 | Nc1cccc(F)c1C(=O)NNc1cc(Cl)cc(Cl)c1 | > 50 µM |  | 25 µM (≈ 7.85 µg/mL) | 6.25 µM (≈ 1.96 µg/mL) |  |  | 
25 | Nc1cccc(F)c1C(N1CCOCC1)C(F)(F)F (stereo not drawn) | 50 µM (≈ 13.9 µg/mL) |  | 50 µM (≈ 13.9 µg/mL) | 50 µM (≈ 13.9 µg/mL) |  |  | 
26 | Nc1cccc(F)c1C(=O)NNc1ccc([N+](=O)[O-])cc1[N+](=O)[O-] | > 50 µM |  | > 50 µM | > 50 µM |  |  | 
27 | Nc1cccc(F)c1C(=O)NNC1CCCCC1 | 9.4 µM (≈ 2.36 µg/mL) | 909 µM | 50 µM (≈ 12.6 µg/mL) | 9.4 µM (≈ 2.36 µg/mL) |  |  | 
28 | Cc1nc(-c2c(N)cccc2F)no1 | > 50 µM |  | > 50 µM | > 50 µM |  |  | 
29 | CONC(=O)c1c(N)cccc1F | > 50 µM |  | > 50 µM | > 50 µM |  |  | 
30 | Nc1cccc(F)c1C(=O)Nc1ccc(F)cc1 | > 50 µM |  | > 50 µM | > 50 µM |  |  | 
31 | Nc1cccc(F)c1C(=O)NNc1ccc(F)cc1 |  | 1360 µM | 2.3 µM (≈ 0.605 µg/mL) | 1.56 µM (≈ 0.411 µg/mL) | 9.4 µM (≈ 2.47 µg/mL) |  | 
32 | Nc1cccc(F)c1C(=O)NNc1cccc(Cl)c1Cl | 50 µM (≈ 15.7 µg/mL) | > 1800 µM | 12.5 µM (≈ 3.93 µg/mL) | 6.25 µM (≈ 1.96 µg/mL) |  |  | 
33 | Nc1cccc(F)c1C(=O)NNc1cccc(F)c1 | 12.5 µM (≈ 3.29 µg/mL) | 1360 µM | 6.25 µM (≈ 1.65 µg/mL) | 1.56 µM (≈ 0.411 µg/mL) |  |  | 
34 | Nc1cccc(F)c1C(=O)NNc1ccccc1[N+](=O)[O-] | > 50 µM |  | > 50 µM | 50 µM (≈ 14.5 µg/mL) |  |  | 
35 | Nc1cccc(F)c1C(=O)N1CCOCC1 | > 50 µM |  | > 50 µM | > 50 µM |  |  | 
36 | Cl.Nc1cccc(F)c1C(=O)NNc1ccccc1 |  | > 1800 µM |  |  |  | 2.3 µM | 1.3 µM
37 | Nc1cccc(F)c1C(=O)NNc1c(Cl)cc(Cl)cc1Cl | 5 µM (≈ 1.74 µg/mL) | > 1800 µM | 1.25 µM (≈ 0.436 µg/mL) | 0.625 µM (≈ 0.218 µg/mL) |  |  | 
38 | NNC(=O)c1c(N)cccc1F | > 50 µM |  | > 50 µM | > 50 µM |  |  | 
39 | Nc1cccc(F)c1-c1nnn[nH]1 | > 50 µM |  | > 50 µM | > 50 µM |  |  | 
40 | Nc1cccc(F)c1C(=O)NCCO | > 50 µM |  | > 50 µM | > 50 µM |  |  | 
41 | CN1CCN(C(=O)c2c(N)cccc2F)CC1 | > 50 µM |  | > 50 µM | > 50 µM |  |  | 
42 | Nc1cccc(F)c1C(=O)NNc1cccc([N+](=O)[O-])c1 | > 50 µM | 1300 µM | 25 µM (≈ 7.26 µg/mL) | 6.25 µM (≈ 1.81 µg/mL) |  |  | 
43 | Nc1cccc(F)c1C(=O)NNc1ccc(Cl)cc1Cl | 50 µM (≈ 15.7 µg/mL) | 1040 µM | 6.25 µM (≈ 1.96 µg/mL) | 3.12 µM (≈ 0.982 µg/mL) |  |  | 
44 | NNC(=O)c1ccncc1 [ISONIAZID] |  |  |  | 0.1 µM (≈ 0.0137 µg/mL) |  |  | 
